The source made the active and inactive calls. The rule behind the calls is not given here.
Tests used:
Mus musculus [1] = test: Anticonvulsant activity in Mus musculus CF1 albino (mouse) assessed as protection against maximal electroshock-induced seizures at 300 mg/kg, ip measured at 4 hr; type: functional, organism-based; design: dose 300 mg/kg
Mus musculus [2] = test: Anticonvulsant activity in Mus musculus CF1 albino (mouse) assessed as protection against subcutaneous metrazol-induced seizures at 30 mg/kg, ip measured at 4 hr; type: functional, organism-based; design: dose 30 mg/kg
Mus musculus [3] = test: Neurotoxicity in Mus musculus CF1 albino (mouse) assessed as minimal motor impairment at 300 mg/kg, ip measured at 0.5 hr by rotorod test; type: toxicity, organism-based; design: dose 300 mg/kg, route intraperitoneal; conditions: in vivo
Mus musculus [4] = test: Anticonvulsant activity in ip dosed Mus musculus CF1 albino (mouse) assessed as protection against maximal electroshock-induced seizures measured at 0.25 hr; type: functional
Mus musculus [5] = test: Neurotoxicity in Mus musculus CF1 albino (mouse) assessed as minimal motor impairment at 30 mg/kg, ip measured at 4 hr by rotorod test; type: toxicity, organism-based; design: dose 30 mg/kg, route intraperitoneal; conditions: in vivo
Mus musculus [6] = test: Anticonvulsant activity in ip dosed Mus musculus CF1 albino (mouse) assessed as protection against subcutaneous metrazol-induced seizures measured at 0.25 hr; type: functional
Mus musculus [7] = test: Anticonvulsant activity in Mus musculus CF1 albino (mouse) assessed as protection against maximal electroshock-induced seizures at 100 mg/kg, ip measured at 0.5 hr; type: functional, organism-based; design: dose 100 mg/kg
Mus musculus [8] = test: Anticonvulsant activity in Mus musculus CF1 albino (mouse) assessed as protection against electrically-induced seizure at 100 mg/kg, ip measured at 1 hr by 6Hz psychomotor seizure test; type: functional, organism-based; design: dose 100 mg/kg
Mus musculus [9] = test: Anticonvulsant activity in Mus musculus CF1 albino (mouse) assessed as protection against maximal electroshock-induced seizures at 30 mg/kg, ip measured at 4 hr; type: functional, organism-based; design: dose 30 mg/kg
Mus musculus [10] = test: Neurotoxicity in Mus musculus CF1 albino (mouse) assessed as minimal motor impairment at 30 mg/kg, ip measured at 0.5 hr by rotorod test; type: toxicity, organism-based; design: dose 30 mg/kg, route intraperitoneal; conditions: in vivo
Mus musculus [11] = test: Anticonvulsant activity in Mus musculus CF1 albino (mouse) assessed as protection against electrically-induced seizure at 100 mg/kg, ip measured at 0.25 hr by 6Hz psychomotor seizure test; type: functional, organism-based; design: dose 100 mg/kg
Mus musculus [12] = test: Anticonvulsant activity in Mus musculus CF1 albino (mouse) assessed as protection against maximal electroshock-induced seizures at 30 mg/kg, ip measured at 0.5 hr; type: functional, organism-based; design: dose 30 mg/kg
Mus musculus [13] = test: Anticonvulsant activity in Mus musculus CF1 albino (mouse) assessed as protection against subcutaneous metrazol-induced seizures at 100 mg/kg, ip measured at 0.5 hr; type: functional, organism-based; design: dose 100 mg/kg
Mus musculus [14] = test: Anticonvulsant activity in ip dosed Mus musculus CF1 albino (mouse) assessed as protection against electrically-induced seizure measured at 0.25 hr by 6Hz psychomotor seizure test; type: functional
Mus musculus [15] = test: Anticonvulsant activity in Mus musculus CF1 albino (mouse) assessed as protection against electrically-induced seizure at 100 mg/kg, ip measured at 0.5 hr by 6Hz psychomotor seizure test; type: functional, organism-based; design: dose 100 mg/kg
Mus musculus [16] = test: Anticonvulsant activity in Mus musculus CF1 albino (mouse) assessed as protection against maximal electroshock-induced seizures at 300 mg/kg, ip measured at 0.5 hr; type: functional, organism-based; design: dose 300 mg/kg
Mus musculus [17] = test: Anticonvulsant activity in Mus musculus CF1 albino (mouse) assessed as protection against subcutaneous metrazol-induced seizures at 300 mg/kg, ip measured at 4 hr; type: functional, organism-based; design: dose 300 mg/kg
Mus musculus [18] = test: Anticonvulsant activity in Mus musculus CF1 albino (mouse) assessed as protection against subcutaneous metrazol-induced seizures at 300 mg/kg, ip measured at 0.5 hr; type: functional, organism-based; design: dose 300 mg/kg
Mus musculus [19] = test: Anticonvulsant activity in Mus musculus CF1 albino (mouse) assessed as protection against electrically-induced seizure at 100 mg/kg, ip measured at 4 hr by 6Hz psychomotor seizure test; type: functional, organism-based; design: dose 100 mg/kg
Mus musculus [20] = test: Anticonvulsant activity in Mus musculus CF1 albino (mouse) assessed as protection against subcutaneous metrazol-induced seizures at 100 mg/kg, ip measured at 4 hr; type: functional, organism-based; design: dose 100 mg/kg
Mus musculus [21] = test: Anticonvulsant activity in Mus musculus CF1 albino (mouse) assessed as protection against electrically-induced seizure at 100 mg/kg, ip measured at 2 hr by 6Hz psychomotor seizure test; type: functional, organism-based; design: dose 100 mg/kg
Mus musculus [22] = test: Neurotoxicity in Mus musculus CF1 albino (mouse) assessed as minimal motor impairment at 100 mg/kg, ip measured at 4 hr by rotorod test; type: toxicity, organism-based; design: dose 100 mg/kg, route intraperitoneal; conditions: in vivo
Mus musculus [23] = test: Anticonvulsant activity in Mus musculus CF1 albino (mouse) assessed as protection against maximal electroshock-induced seizures at 100 mg/kg, ip measured at 4 hr; type: functional, organism-based; design: dose 100 mg/kg
Mus musculus [24] = test: Anticonvulsant activity in Mus musculus CF1 albino (mouse) assessed as protection against subcutaneous metrazol-induced seizures at 30 mg/kg, ip measured at 0.5 hr; type: functional, organism-based; design: dose 30 mg/kg
Mus musculus [25] = test: Neurotoxicity in Mus musculus CF1 albino (mouse) assessed as minimal motor impairment at 300 mg/kg, ip measured at 4 hr by rotorod test; type: toxicity, organism-based; design: dose 300 mg/kg, route intraperitoneal; conditions: in vivo
Mus musculus [26] = test: Neurotoxicity in Mus musculus CF1 albino (mouse) assessed as minimal motor impairment at 100 mg/kg, ip measured at 0.5 hr by rotorod test; type: toxicity, organism-based; design: dose 100 mg/kg, route intraperitoneal; conditions: in vivo
[27] = Protective index, ratio of TD50 for neurotoxicity in ip dosed Mus musculus CF1 albino (mouse) to ED50 for protection against maximal electroshock-induced seizures in ip dosed Mus musculus CF1 albino (mouse); type: toxicity, organism-based; conditions: in vivo, read-out: Ratio TD50/ED50
[28] = Protective index, ratio of TD50 for neurotoxicity in ip dosed Mus musculus CF1 albino (mouse) to ED50 for protection against subcutaneous metrazol-induced seizures in ip dosed Mus musculus CF1 albino (mouse); type: toxicity, organism-based; conditions: in vivo, read-out: Ratio TD50/ED50
[29] = Neurotoxicity in ip dosed Mus musculus CF1 albino (mouse) assessed as minimal motor impairment measured at 0.25 hr by rotorod test; type: toxicity, organism-based; conditions: in vivo
[30] = Protective index, ratio of TD50 for neurotoxicity in ip dosed Mus musculus CF1 albino (mouse) to ED50 for protection against electrically-induced seizure by 6Hz psychomotor seizure test in ip dosed Mus musculus CF1 albino (mouse); type: toxicity, organism-based; conditions: in vivo, read-out: Ratio TD50/ED50

SMILES | Activity (Mus musculus [1]) | Activity (Mus musculus [2]) | Activity (Mus musculus [3]) | Activity (Mus musculus [5]) | Activity (Mus musculus [7]) | Activity (Mus musculus [9]) | Activity (Mus musculus [10]) | Activity (Mus musculus [12]) | Activity (Mus musculus [13]) | Activity (Mus musculus [16]) | Activity (Mus musculus [17]) | Activity (Mus musculus [18]) | Activity (Mus musculus [19]) | Activity (Mus musculus [20]) | Activity (Mus musculus [21]) | Activity (Mus musculus [22]) | Activity (Mus musculus [23]) | Activity (Mus musculus [24]) | Activity (Mus musculus [25]) | Activity (Mus musculus [26]) | other results
c1ccc(-c2c[nH]c(-c3ccccc3)n2)cc1 | Active | inactive | Toxic | Non-toxic | Active | inactive | Non-toxic | Active | inactive | Active | inactive | inactive | inactive | inactive | inactive | Non-toxic | inactive | inactive |  |  | ED50 (Mus musculus [4]): 61.7 mg/kg; ED50 (Mus musculus [6]): 161 mg/kg; Activity (Mus musculus [8]): Active; Activity (Mus musculus [11]): Active; ED50 (Mus musculus [14]): 47.2 mg/kg; Activity (Mus musculus [15]): Active
COc1ccc(-c2nc(-c3ccc(Cl)cc3)c[nH]2)cc1 | Active | inactive | Non-toxic | Non-toxic |  | inactive | Non-toxic | inactive | inactive | Active | inactive | inactive | inactive | inactive | inactive | Non-toxic | Active | inactive | Non-toxic | Non-toxic | ED50 (Mus musculus [4]): 68.8 mg/kg; ED50 (Mus musculus [6]): 158 mg/kg; selectivity ratio [27]: 3.5; selectivity ratio [28]: 1.5; TD50 at 0.25 h [29]: 238 mg/kg
Cc1ccc(-c2nc(-c3ccccc3)c[nH]2)cc1 | Active | inactive | Non-toxic | Non-toxic |  | inactive | Non-toxic | inactive | inactive | Active | inactive | inactive | inactive | inactive |  | Non-toxic | inactive | inactive | Non-toxic | Non-toxic | ED50 (Mus musculus [14]): 62.4 mg/kg; TD50 at 0.25 h [29]: 188 mg/kg; selectivity ratio [30]: 3
CC(C)Oc1ccc(-c2nc(-c3ccccc3)c[nH]2)cc1 | Active | inactive | Toxic | Non-toxic | Active | inactive | Non-toxic | Active | inactive | Active | inactive | inactive | inactive | inactive | inactive | Non-toxic | inactive | inactive |  | Non-toxic | 
CC(C)c1ccc(-c2nc(-c3ccccc3)c[nH]2)cc1 | Active | inactive | Non-toxic | Non-toxic | inactive | inactive | Non-toxic | inactive | inactive | Active | inactive | inactive |  | inactive |  | Non-toxic | inactive | inactive | Non-toxic | Non-toxic | Activity (Mus musculus [8]): inactive

— ChEMBL document CHEMBL3045552, “In vivo screening of diarylimidazoles as anticonvulsant agents” (Med Chem Res, 2012)
